Experiments:
Candida albicans = assay: Candidamycosis of mammals: intradermal Candida albicans ulceration in rabbits, topical treatment; format: in vivo; conditions: for Complete cure by day 7: scarring of the lesion by day 7, 0.1% oil (olive oil) solution applied twice a day for 7 days
Description: Rabbits were inoculated intradermally with a suspension of a 48-hour Candida albicans culture at a dose of 10,000 fungal cells in […] of a 0.9% sodium chloride solution. […] For the study, a 0.1% oil (olive oil) solution of the 5-[3,5-dichloro-2-hydroxybenzylidene)amino]-4-hydroxy-1H-pyrimidin-2-one salt associate with 1,2,3,4,5-pentahydroxy-6-methylaminohexane and substance I-3 were prepared. Sterile water was used as the control substance. The duration of treatment was 7 days, starting from the 1st day after ulceration. The preparations were applied with a cotton swab twice a day—in the morning and in the evening. The criterion for mycological cure was the absence of the yeast and mycelial forms of Candida, and the criterion for complete cure was the scarring of the lesion by day 7.

Aspergillus niger = assay: Aspergillus pneumonia in immunodeficient mice, aerosol treatment, microbial contamination of the lungs; format: in vivo, white mongrel mice; conditions: for Number of colonies (in different dilutions), 10^−2: dilution 10^−2, Saburo medium
Description: The studies were conducted on white mongrel mice (females, 6-8 weeks) in Rappolovo (Leningrad region), the quarantine period was 2 weeks. To reproduce aspergillus pneumonia of the mouse, in order to create an immunodeficiency, a cyclophosphamide solution (150 mg/kg) was injected once intraperitoneally. Three days later, the mice were injected hydrocortisone (250 mg/kg), intraperitoneally, once. One day after the hydrocortisone administration the mice were infected with a suspension of Aspergillus niger (approximately 3×10^7 cell/ml) intranasally, under ether anesthesia. On the 5th day after infection, 5 animals from each group were taken to study microbial contamination of the lungs (euthanasia in rodents was performed with an overdose of ether). From the lung tissue, homogenates were prepared in which the titer of Aspergillus genus fungi was determined. Observation over the remaining mice was carried out within 14 days after infection for mortality accounting. The test solutions were injected in an aerosol chamber. In the course of the experiment, the following groups of animals were formed: • 1—spray control (K), 3 identical groups (K1, K2, K3). The animals infected with Aspergillus and receiving an aerosol of isotonic sodium chloride solution. • 2—The associate of 5-[3,5-dichloro-2-hydroxybenzylidene)amino]-4-hydroxy-1H-pyrimidin-2-one salt with 1,2,3,4,5-pentahydroxy-6-methylaminohexane, 3 identical groups (E1-3). The animals infected with Aspergillus and receiving an aerosol of 0.1% of the preparation under study. • 3. Aqueous solution of substance I-1 • 4. Aqueous solution of substance I-2 • 5. Aqueous solution of substance I-3 • 6. Aqueous solution of substance I-4 • 7. Aqueous solution of substance I-5 • 8. Aqueous solution of substance I-6 • 9. Aqueous solution of substance I-7. The animals were placed into aerosol chambers (12 l) for a period of 30 minutes, during which 500 ml of air passed through the lungs. As an aerosol generator, an ultrasonic nebulizer OMRON U1 (Japan) was used. To maintain a constant concentration of the aerosol of the preparation in the chamber, a vortex pneumatic generator in pulsed spraying mode was used to obtain a stable aerosol with a particle size of 3 m. The animals were placed into immobilization containers and exposed to the obtained aerosol for 30 minutes once a day for 3 days, starting from the first day after the infection. From the samples of homogenized lung tissues, a number of successive dilutions were prepared, followed by seeding on to Saburo medium.

[1] = cited from earlier work
Leveillula taurica = assay: Treatment of powdery mildew on begonia tuberosa by spray; format: in vivo, Begonia tuberosa hybridum
Description: The study was carried out on begonia tuberosa (Begonia tuberosa hybridum), infected with powdery mildew. Powdery mildew affects many plants, including trees and shrubs. Powdery mildew affects chrysanthemums, begonias, and roses; it is manifested in appearance of a white, sometimes darkening spew on green parts of plants. The plant disease is transmitted by spores through the air. The test plants were infected with spores of the fungus (Leveillula taurica) and kept until a white spew appeared on the leaves. Three leaves on each plant were infected. After appearance of the spew, the plants of the control group (3 plants) were isolated from the 3 plants treated with a spray, which is an aqueous solution of substance I-3. The treatment was performed once in a day for 3 and 7 days. After completion of the treatment, the observation over the plants was continued for another 3 weeks. During the observation, an increase in the amount of spew representing the fungal mycelium was registered in the control plants and the number of affected leaves increased, on average, to 7-8, while the spew covered the stems of the plants as well.

[2] = lung homogenate, 5th day after infection, aerosol 30 minutes once a day for 3 days

Row | Structure (SMILES) | Complete cure by day 7 (Candida albicans) | Number of colonies (in different dilutions), 10^−2 (Aspergillus niger; [2]) | Number of colonies (in different dilutions), 10^−4 (Aspergillus niger; lung homogenate, 5th day after infection, dilution 10^−4, Saburo medium, aerosol 30 minutes once a day for 3 days) | solubility in oil solutions ([1]; oil solutions) | solubility in water ([1]; water) | Presence of mycelium of fungi in the smear, 5 day (Candida albicans; 5 day, 0.1% oil (olive oil) solution applied twice a day) | overall effect of treatment (Candida albicans; conclusion from Table 3) | increase or spread of the fungus to other parts of the plant (Leveillula taurica; aqueous solution spray once in a day for 3 and 7 days, observation for another 3 weeks) | growth of the fungi when flushed from the leaf and plated on a nutrient medium (Leveillula taurica; flush from treated leaf, nutrient medium) | overall antifungal effectiveness among tested agents (Aspergillus niger; conclusion from Table 2)
1 | CNCC(O)C(O)C(O)C(O)CO.O=c1nc(O)c(N=Cc2cc(Cl)cc(Cl)c2O)c[nH]1 [associate of 5-[3,5-dichloro-2-hydroxybenzylidene)amino]-4-hydroxy-1H-pyrimidin-2-one salt with 1,2,3,4,5-pentahydroxy-6-methylaminohexane, reference compound] | Absent | 12 col | 2 col | up to 0.3% | ≤ 0.4% | – | – | – | – | –
2 | Cc1[nH]c(=O)[nH]c(=O)c1N=Cc1cc(Cl)cc(Cl)c1O.[Na] [Substance I-3, 2,4-dioxo-5-(2-hydroxy-3,5-dichlorobenzylidene) amino-6-methyl-1,3-pyrimidine sodium salt] | Achieved | 2 col | – | – | – | no growth | positive effect is achieved | no increase or spread of the fungus to other parts of the plant was recorded | no growth of the fungi was recorded | most effective antifungal agent
3 | Cc1[nH]c(=O)[nH]c(=O)c1N=Cc1ccc([N+](=O)[O-])cc1.[Na] [Substance I-1, 2,4-dioxo-5-(4-nitrobenzylidene)amino-6-methyl-1,3-pyrimidine sodium salt] | – | 5 col | – | – | – | – | – | – | – | –
